Reference: patent US20160081901A1, “COMPOSITIONS AND METHODS FOR HAIR GROWTH” (WUHAN OPTICS VALLEY BRIDGEBIOMED INTERNATIONAL CORPORATION, priority 2013, published 2016)

Legend:
[1] = target: T1, bradykinin (BK) B2 receptors (Homo sapiens, UniProt P30411); assay: PG secretion in cell supernatant by enzyme immunoassay (EIA), relative to 1 μM bradykinin; type: cell-based; conditions: for PG release (%) compared with BK-1 μM (100%): 1 h, 37° C.
T1 construct: The cell strains used in the study were human primary vein endothelial cells (HPVEC) and human aortic smooth muscle cells (HASMC); endogenous in cells; host or cells: HPVEC and HASMC (human primary cells)
T1 sequence (P30411 1-391): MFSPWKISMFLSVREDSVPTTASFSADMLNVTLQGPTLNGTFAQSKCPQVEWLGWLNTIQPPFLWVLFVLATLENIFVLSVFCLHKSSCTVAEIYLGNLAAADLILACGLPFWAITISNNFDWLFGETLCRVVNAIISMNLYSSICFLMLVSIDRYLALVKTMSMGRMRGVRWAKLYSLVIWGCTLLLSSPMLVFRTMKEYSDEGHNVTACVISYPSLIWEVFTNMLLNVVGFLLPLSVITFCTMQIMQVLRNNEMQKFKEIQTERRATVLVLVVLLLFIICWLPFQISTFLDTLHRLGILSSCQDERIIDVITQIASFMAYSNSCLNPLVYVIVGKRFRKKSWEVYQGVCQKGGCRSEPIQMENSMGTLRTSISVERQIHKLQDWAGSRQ
Experimental: We studied angiotensin II receptor antagonists activating bradykinin (BK) B2 receptors to promote secretion of Prostaglandin. Losartan, candesartan, telmisartan were selected for the study described below, and bradykinin was used as control. Implantation Two cell lines were transferred into T-75 cell culture flask, and then the instructions of PG kit were strictly followed when cells have reached the appropriate density. Day 1 Cells were seeded in 24 well dishes with minimum medium and allowed to adhere overnight. Day 2 Cells were starved in the serum-free conditioned medium. […] The supernatant was collected after incubation for later use. Day 4 24 well dishes were washed and then dyed for 45-90 min, and then the OD value was measured for analysis. Therefore OD values of BK B2 receptor agonists were obtained and the EC50, EMAX were calculated. The cell strains used in the study were human primary vein endothelial cells (HPVEC) and human aortic smooth muscle cells (HASMC).
In order to detect endogenous prostaglandin, enzyme immunoassay (EIA) was used to determine the amount of prostaglandin and subtypes thereof in the cell supernatant described above.

[2] = target: T2, B2 receptor (Homo sapiens, UniProt P30411); assay: Inhibition of PG secretion by B2 receptor inhibitor HOE-140; type: cell-based; conditions: for PG synthesis blocked by 1 μM HOE-140: PG synthesis caused by 10 μM of the compound
T2 construct: The cell strains used in the study were human primary vein endothelial cells (HPVEC) and human aortic smooth muscle cells (HASMC); endogenous in cells; host or cells: HPVEC and HASMC (human primary cells)
T2 sequence (P30411 1-391): T1 sequence (P30411 1-391)
Experimental: The detailed protocol for the elucidation of inhibited PG secretion by B2 receptor inhibitor HOE-140 was shown as follows. Two different cell lines were transferred into T-75 cell culture flask, and then the instructions of PG kit were strictly followed when cells have reached the appropriate density. Day 1. Cells were seeded in 24 well dishes with minimum medium and allowed to adhere overnight. Day 2. Cells were starved in the serum-free conditioned medium. Day 3. […] Cells were incubated at 37° C. for 1 h. The supernatant was collected after incubation for later use. Day 4. 24 well dishes were washed and then dyed for 45-90 min, and then the quantitative analysis was carried out. Therefore OD values (420 nm) of BK B2 receptor agonists were obtained and the EC50, EMAX were calculated.
Therefore we could conclude the angiotensin II type 1 receptor antagonists influence PG secretion via B2 receptor since HOE-140 acts as B2 receptor antagonist

[3] = target: T2, B2 receptor; assay: PG subtype secretion (EIA) induced by Candesartan in HPVEC and HASMC; type: cell-based; conditions: for PGE2 (%) / PGF-2a (%): 10 μM Candesartan
Description: These percentage values above were all calibrated with respect to bradykinin.

[4] = longest of all commercially available ARBs; cited from earlier work
[5] = 10 μM, calibrated with respect to bradykinin
[6] = HASMC, calibrated with respect to bradykinin
[7] = HPVEC, calibrated with respect to bradykinin

CCOc1nc2cccc(C(=O)O)c2n1Cc1ccc(-c2ccccc2-c2nn[nH]n2)cc1 [Candesartan, 2-ethoxy-1-({4-[2-(2H-1,2,3,4-tetrazol-5-yl)phenyl]phenyl}methyl)-1H-1,3-benzodiazole-7-carboxylic acid]
PG release (%) compared with BK-1 μM (100%) ([1]; 1 μM): 16.51 ± 2.02%
PG release (%) compared with BK-1 μM (100%) ([1]; 3 μM): 26.91 ± 4.13%
effect relative to the effect of 1 μM of bradykinin (PG secretion) ([1]; 10 μM): ~50%
PG release (%) compared with BK-1 μM (100%) ([1]; 10 μM): 46.19 ± 5.65%
effect relative to the effect of 1 μM of bradykinin (PG secretion) ([1]; 30 μM): ~90%
PG release (%) compared with BK-1 μM (100%) ([1]; 30 μM): 86.83 ± 7.21%
PG release (%) compared with BK-1 μM (100%) ([1]; 30 nm): 6.21 ± 2.3%
PG release (%) compared with BK-1 μM (100%) ([1]; 100 nm): 11.27 ± 2.74%
PG release (%) compared with BK-1 μM (100%) ([1]; 300 nm): 12.91 ± 3.08%
PG relaease (%) compared with BK-1 μM (100%) ([2]; 10 μM + 1 μM HOE-140): 6 ± 3.12%
PG relaease (%) compared with BK-1 μM (100%) ([2]; 10 μM, without HOE-140): 46.19 ± 5.65%
PG synthesis blocked by 1 μM HOE-140 [2]: 85%
Prostaglandin D secretion ([3]; 10 μM): no Prostaglandin D detected
share of PG secretion that was Prostaglandin E2 [3, 5]: 30%
share of PG secretion that was Prostaglandin F-2a [3, 5]: roughly 6%
PGE2 (%) [3, 6]: 37.13 ± 9.85%
PGF-2a (%) [3, 6]: 6.21 ± 2.56%
PGE2 (%) [3, 7]: 32.54 ± 6.93%
PGF-2a (%) [3, 7]: 5.47 ± 3.32%

CCCCc1nc(Cl)c(CO)n1Cc1ccc(-c2ccccc2-c2nn[nH]n2)cc1 [Losartan, (2-butyl-4-chloro-1-{[2′-(1H-tetrazol-5-yl)biphenyl-4-yl]methyl}-1H-imidazol-5-yl)methanol]
PG release (%) compared with BK-1 μM (100%) ([1]; 1 μM): 8.16 ± 2.43%
PG release (%) compared with BK-1 μM (100%) ([1]; 3 μM): 12.06 ± 4.12%
PG release (%) compared with BK-1 μM (100%) ([1]; 10 μM): 23.18 ± 3.65%
effect relative to the effect of 1 μM of bradykinin (PG secretion) ([1]; 30 μM): ~60%
PG release (%) compared with BK-1 μM (100%) ([1]; 30 μM): 58.17 ± 6.32%
PG release (%) compared with BK-1 μM (100%) ([1]; 30 nm): 0.18 ± 0.74%
PG release (%) compared with BK-1 μM (100%) ([1]; 100 nm): 2.96 ± 2.22%
PG release (%) compared with BK-1 μM (100%) ([1]; 300 nm): 4.69 ± 1.21%
PG relaease (%) compared with BK-1 μM (100%) ([2]; 10 μM + 1 μM HOE-140): 5 ± 4.45%
PG relaease (%) compared with BK-1 μM (100%) ([2]; 10 μM, without HOE-140): 23.18 ± 3.65%
PG synthesis blocked by 1 μM HOE-140 [2]: 80%

CCCc1nc2c(C)cc(-c3nc4ccccc4n3C)cc2n1Cc1ccc(-c2ccccc2C(=O)O)cc1 [Telmisartan, 2-(4-{[4-methyl-6-(1-methyl-1H-1,3-benzodiazol-2-yl)-2-propyl-1H-1,3-benzodiazol-1-yl]methyl}phenyl)benzoic acid]
PG release (%) compared with BK-1 μM (100%) ([1]; 1 μM): 9.01 ± 1.35%
PG release (%) compared with BK-1 μM (100%) ([1]; 3 μM): 13.56 ± 1.56%
PG release (%) compared with BK-1 μM (100%) ([1]; 10 μM): 14.56 ± 2.42%
effect relative to the effect of 1 μM of bradykinin (PG secretion) ([1]; 30 μM): ~25%
PG release (%) compared with BK-1 μM (100%) ([1]; 30 μM): 25.46 ± 3.48%
PG release (%) compared with BK-1 μM (100%) ([1]; 30 nm): 4.48 ± 1.54%
PG release (%) compared with BK-1 μM (100%) ([1]; 100 nm): 4.69 ± 1.78%
PG release (%) compared with BK-1 μM (100%) ([1]; 300 nm): 6.46 ± 3.1%
PG relaease (%) compared with BK-1 μM (100%) ([2]; 10 μM + 1 μM HOE-140): 3 ± 2.03%
PG relaease (%) compared with BK-1 μM (100%) ([2]; 10 μM, without HOE-140): 14.56 ± 2.42%
PG synthesis blocked by 1 μM HOE-140 [2]: 80%
half-life [4]: about 24 h
